Measurements from PubChem BioAssay AID1259371 (The Scripps Research Institute Molecular Screening Center, 2018).
Calls of active or inactive are those of the source. The rule behind the calls is not given here.

target: Microphthalmia-associated transcription factor (Homo sapiens) (UniProt O75030); assay: compounds blocking human MITF signal – biochemical, AlphaScreen, dose response (AID 1259371); conditions: AlphaScreen biochemical MITF assay, signal inhibition
Sequence (O75030 whole entry, looked up): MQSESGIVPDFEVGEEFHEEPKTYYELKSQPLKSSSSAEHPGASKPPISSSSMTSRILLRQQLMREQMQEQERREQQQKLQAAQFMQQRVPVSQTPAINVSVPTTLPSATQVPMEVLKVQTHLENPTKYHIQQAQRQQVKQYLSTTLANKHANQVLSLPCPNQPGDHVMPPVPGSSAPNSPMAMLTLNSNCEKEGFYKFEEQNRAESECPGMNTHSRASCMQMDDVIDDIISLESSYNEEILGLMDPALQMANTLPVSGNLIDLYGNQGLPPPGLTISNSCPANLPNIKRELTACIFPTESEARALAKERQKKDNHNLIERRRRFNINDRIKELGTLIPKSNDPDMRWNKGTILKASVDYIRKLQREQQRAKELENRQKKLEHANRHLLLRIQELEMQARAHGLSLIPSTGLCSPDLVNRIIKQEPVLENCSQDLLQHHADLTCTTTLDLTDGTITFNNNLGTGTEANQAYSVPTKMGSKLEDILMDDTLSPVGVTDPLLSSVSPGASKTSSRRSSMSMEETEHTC

Row | SMILES | IC50
1 | O=C(O)c1cc([N+](=O)[O-])cc2c1-c1c(cc([N+](=O)[O-])cc1[N+](=O)[O-])/C2=C/c1ccco1 | inactive
2 | Clc1ccc(CN2CCN(Cc3c[nH]c4ccccc34)CC2)cc1 | inactive
3 | O=C(Nc1ccc(N2CCOCC2)cc1)c1cccc(Nc2ccncn2)n1 | inactive
4 | C[C@@H](OCc1ccccc1)[C@@H]1NC(=O)[C@H]2CN(C(=O)NC3CCCCC3)CCN2C1=O | inactive
5 | Cc1oc(C(=O)O)cc1CSCCSCc1cc(C(=O)O)oc1C | > 2160 nM (inactive)
6 | O=c1[nH]c(/C=C/c2ccco2)nc(O)c1[N+](=O)[O-] | 284 nM
7 | COc1ccc2c(c1)CC(C(=O)Nc1ccc(-c3cn[nH]c3)cc1C(=O)N(C)OC)CO2 (stereo unspecified) | inactive
8 | NC(=O)C1CCN(C(=O)c2cc(-c3ccco3)nc3ccccc23)CC1 | 45.3 nM
9 | COCCNC(=O)COC(=O)c1cc(-c2ccco2)nc2ccccc12 | inactive
10 | CCc1ccc(NC(=O)CS(=O)CC(=O)NCCCc2ccccc2)cc1 (stereo unspecified) | > 6480 nM (inactive)
11 | CN1C(=O)[C@H]2CN(C(=O)NC3CCCCC3)CCN2C(=O)[C@@H]1CO | > 6480 nM (inactive)
12 | O=C1NC(=S)N/C1=C\c1ccc([N+](=O)[O-])o1 | 239 nM
13 | Cc1noc(C2CN(C(=O)c3ccc(-n4cccc4)cc3)C2)n1 | inactive
14 | CCOC(=O)Cc1[nH]nc2c1C1(C(=O)N(CC)c3ccccc31)C(C#N)=C(N)O2 (stereo unspecified) | > 6480 nM (inactive)
15 | CC(C)C[C@H]1C(=O)N2CCN(C(=O)NC3CCCCC3)C[C@@H]2C(=O)N1C | > 2160 nM (inactive)
16 | Cc1cc(O)c2c(c1)Cc1cccc(O)c1C2=O | 474 nM
17 | N#Cc1c(-c2ccco2)cc(-c2ccco2)nc1N | 20 nM
18 | Cc1cc(CSC(=N)N)c(O)c(C)n1 | 533 nM
19 | CC(Oc1ccc2c(C(F)(F)F)cc(=O)oc2c1)C(=O)NN (stereo unspecified) | inactive
20 | NC(=O)Cn1cnc2sc3c(c2c1=O)CCC3 | inactive
21 | Cc1ccc(C)n1C(Cc1c[nH]c2ccccc12)C(=O)O (stereo unspecified) | 680 nM
22 | N#CC1=c2/c(=C/c3ccco3)c(N)c(C#N)n2C(=O)C(c2ccco2)S1 (stereo unspecified) | 28.1 nM
23 | CN1CCN(C(=O)c2ccc(-c3nc(Nc4ccccc4)c4ncn(C5CCCCC5)c4n3)cc2)CC1 | > 7630 nM (inactive)
24 | OCCNc1cc(-c2cccs2)ncn1 | inactive
25 | CCOC(=O)C1C2NC(=S)N(c3ccccc3)C1(C)Oc1cc(OC)ccc12 (stereo unspecified) | > 6400 nM (inactive)
26 | O=[N+]([O-])c1ccc(N/N=C/c2ccco2)c(S(=O)(=O)N2CCOCC2)c1 | inactive

Row | SMILES | IC50
27 | O=C(Nc1ccc(N2CCOCC2)cc1)c1ccc2nc(Nc3ccccn3)sc2c1 | 537 nM
28 | COc1nccnc1NS(=O)(=O)c1ccc(NC(=O)c2ccc([N+](=O)[O-])c(C)c2)cc1 | > 6480 nM (inactive)
29 | O=C1N[C@H](CO)C(=O)N2CCN(C(=O)NCc3ccccc3)C[C@H]12 | 526 nM
30 | CCOc1ccccc1N1CCN(Cc2cc(OC)c(O)c([N+](=O)[O-])c2)CC1 | > 6480 nM (inactive)
31 | O=C(/C=C/c1ccco1)NC(=S)Nc1ccc(Cl)c(C(=O)O)c1 | 527 nM
32 | O=C(O)CCCNC(=O)/C=C/c1ccco1 | > 2160 nM (inactive)
33 | CNC(=O)COc1cc(-c2cn[nH]c2)ccc1NC(=O)C1COc2ccc(OC)cc2C1 (stereo unspecified) | inactive
34 | C[C@@H]1NC(=O)[C@H]2CN(C(=O)NCc3ccccc3)CCN2C1=O | inactive
35 | N#Cc1c(SCC(=O)O)nc2c(c1-c1ccco1)CCC2 | 194 nM
36 | Nc1cc(Br)cnc1N | 61.9 nM
37 | Cc1cccc(OCC(=O)N2CCN(Cc3cccc(Br)c3)CC2)c1 | > 6480 nM (inactive)
38 | COc1cc(N2CCOCC2)ccc1Nc1cc(NC(C)(C)c2ccccc2)c(C(F)(F)F)cn1 | inactive
39 | CN=C1SC(CC(=O)Nc2cccc(C(=O)O)c2)C(=O)N1C (stereo unspecified) | inactive
40 | CN(C)c1ccc(NC(=O)CSc2ncccc2C(=O)O)cc1 | inactive
41 | O=C(NC1CCCCC1)N1CCN2C(=O)[C@@H]3C[C@@H](O)CN3C(=O)[C@H]2C1 | inactive
42 | Cc1ccc2[nH]c(=O)c(=O)[nH]c2c1 | > 12100 nM (inactive)
43 | CN(C)CCn1nnnc1SCC1=C(C(=O)O)N2C(=O)[C@@H](NC(=O)Cc3csc(N)n3)[C@H]2SC1 | 215 nM
44 | COc1ccc(CN2CCN(Cc3ccccc3OC)CC2)cc1 | > 7330 nM (inactive)
45 | COc1cc(-c2ccnc(N)n2)ccc1NC(=O)[C@H]1COc2ccccc2O1 | inactive
46 | NC(=O)/C(=C\c1cccc([N+](=O)[O-])c1)NC(=O)c1ccc(Br)cc1 | > 6480 nM (inactive)
47 | Oc1ccc(CCNc2cc(-c3cccs3)ncn2)cc1 | > 6700 nM (inactive)
48 | CCOC1=CC(c2ccc3c(c2)OCO3)CC(=O)c2c(C)oc(C)c21 (stereo unspecified) | > 6480 nM (inactive)
49 | COc1cc(C(=O)N2CCN(Cc3ccccc3C)CC2)cc(OC)c1OC | > 5620 nM (inactive)
50 | O=C(OCN1C(=O)c2ccccc2C1=O)c1cc2c(s1)CCC2 | 734 nM
51 | O=C(O)c1cccc(-n2cccc2/C=C2/NC(=O)N(c3ccc(Cl)cc3)C2=O)c1 | 42.2 nM
